The source of these data is patent US11365201B2, “Chlorotonil derivatives” (HELMHOLTZ-ZENTRUM FÜR INFEKTIONSFORSCHUNG GMBH, priority 2017, dated 2022).

Values after ≈ are worked out from the molar mass of the structure shown. Read-outs that look alike come from different tables or passages of the source.

A word on the MIC: it is the least concentration at which growth counts as inhibited. Usually IC50 stands for the concentration at which inhibition is half-maximal. For orientation: solubility means the concentration that dissolves in the medium under given conditions. Higher therefore signals a readily soluble substance.

Series [1] has as its system Gram-positive bacteria. As to the kind of experiment: Antimicrobial assay, MIC against a range of Gram-positive bacteria (Table 5). The series is classed as cell-based. Conditions: read-out: MIC. How it is done: (§1) Bacterial strains used in susceptibility assays (minimum inhibitory concentrations, MIC) were either part of our internal strain collection or were purchased form the German Collection of Microorganisms and Cell Cultures (DSMZ). All compounds were prepared as DMSO stocks and MIC values were determined in standard microbroth dilution assays. Overnight cultures of bacteria were diluted in cation-adjusted Muller-Hinton broth (BBL™, BD) and were adjusted to approximately 10^5 cfu/mL. […] Bacteria were grown in the presence of the derivatives in serial dilution for 16 h at their optimal growth temperature. MIC values were determined according to CLSI guidelines (antibiotic concentration at which no visible bacterial growth is observed).

Series [2] relates to zebrafish larvae of the TLF wild type line. As to the kind of experiment: Zebrafish embryo toxicity, maximum tolerated concentration (MTC), TLF line. The series is classed as in vivo. Conditions: at five dpf, incubation started at one dpf. The procedure:
(§2) Zebrafish Embryo Toxicity
(§3) The maximum tolerated concentration (MTC) was determined on zebrafish larvae of the AB wildtype line and the TLF wild type line. Larvae were placed into a 96-well plate (one larva per well) and incubated in a solution at different concentrations (100, 50, 25, 10, 1 μM) of ChA, ChA-Epo2, ChB or ChB-Epo at two days post fertilization (dpf) for AB and in a solution at different concentrations of ChA (100, 50 μM) ChA-Epo2 (25, 10, 1 μM), ChB (100, 50 μM) or ChB-Epo (100, 50, 25 μM) at one dpf for TLF. Five zebrafish larvae were used per condition. The incubated embryos were kept in compound solutions at 28° C. until five dpf and monitored daily by microscopy. The final MTC result was recorded at five dpf. Compound solutions were prepared in the larvae medium Danieau's. Additionally a solution of 0.5% DMSO in Danieau's was used as vehicle control and Danieau's alone as a negative control.

Series [3] relates to P. falciparum 3D7 (sensitive strain). As to the kind of experiment: Antiplasmodial in vitro drug sensitivity assay (HRP2-ELISA). The series is classed as cell-based. Conditions: Plasmodium falciparum. How it is done:
(§4) Two laboratory strains of P. falciparum, the chloroquine sensitive 3D7 and the multi-resistant Dd2 were kept in continuous culture as previously described (Trager and Jensen 1976). In brief, parasites were kept in complete culture medium (RPMI 1640, 25 mM HEPES, 2 mM L-glutamine, 50 μg/ml gentamicin and 0.5% w/v AlbuMAX) at 37° C., 5% CO2 and 5% oxygen at 5% hematocrit with daily change of medium. Synchronization was performed with sorbitol twice a week (Lambros and Vanderberg 1979).
(§5) In Vitro Drug Sensitivity Assay
(§6) All compounds were dissolved in DMSO at stock dilutions between 25 and 100 mM; the reference drug chloroquine diphosphate (MW: 515.86) was diluted in distilled water and DMSO, respectively. […] Antiplasmodial activity of the different compounds was tested in a drug sensitivity assay against the two laboratory strains using the histidine-rich protein 2 (HRP2) assay as described previously (Noedl 2005). In brief: 96 well plates were pre-coated with the different compounds in a threefold dilution before ring stage parasites were added in complete culture medium at a hematocrit of 1.5% and a parasitemia of 0.05% in a total volume of 225 μl per well. After three days of incubation plates were frozen until analyzed by HRP2-ELISA. All compounds were evaluated in duplicate in at least two independent experiments.
For orientation: In an ELISA, binding on a coated surface is turned into a signal by an enzyme label.

Series [4] relates to P. falciparum Dd2 (resistant strain). Described as above. It is filed as cell-based. Conditions: Plasmodium falciparum. The procedure: as §4, §5, §6
The subject of series [5] is zebrafish larvae of the AB wildtype line. The series can be described thus: Zebrafish embryo toxicity, maximum tolerated concentration (MTC), AB line. The series is classed as in vivo. The conditions noted are these: AB line, at five dpf, incubation started at two dpf. The procedure: as §2, §3
Series [6] concerns E. coli TolC (+PMBN). The series can be described thus: Antimicrobial assay, MIC by microbroth dilution with PMBN. The series is classed as cell-based. The conditions noted are these: 16 h, 3 μg/mL polymyxin B nonapeptide (PMBN) added. How it is done:
Bacterial strains used in susceptibility assays (minimum inhibitory concentrations, MIC) were either part of our internal strain collection or were purchased form the German Collection of Microorganisms and Cell Cultures (DSMZ). All compounds were prepared as DMSO stocks and MIC values were determined in standard microbroth dilution assays. Overnight cultures of bacteria were diluted in cation-adjusted Muller-Hinton broth (BBL™, BD) and were adjusted to approximately 10^5 cfu/mL. For the E. coli culture, 3 μg/mL of polymyxin B nonapeptide (PMBN) was added to increase permeability of the outer membrane as chlorotonils were previously shown to not penetrate into Gram-negative cells. Bacteria were grown in the presence of the derivatives in serial dilution for 16 h at their optimal growth temperature. MIC values were determined according to CLSI guidelines (antibiotic concentration at which no visible bacterial growth is observed).

Series [7] concerns S. aureus Newman. As to the kind of experiment: Antimicrobial assay, MIC by microbroth dilution. The series is classed as cell-based. The conditions noted are these: Staphylococcus aureus, NEWMAN; 16 h, cation-adjusted Muller-Hinton broth. The procedure:
as §1
(In general: Dilution methods test growth across graded concentrations, often in twofold steps.)

The subject of series [8] is C. glutamicum DSM-20300. As to the kind of experiment: Antimicrobial assay, MIC by microbroth dilution. It is filed as cell-based. Conditions: Corynebacterium glutamicum, DSM20300; 16 h, cation-adjusted Muller-Hinton broth. How it is done: as §1
The test system of series [9] is B. subtilis DSM-10. As to the kind of experiment: Antimicrobial assay, MIC by microbroth dilution. The conditions noted are these: Bacillus subtilis, DSM10; 16 h, cation-adjusted Muller-Hinton broth. It is filed as cell-based. The procedure: as §1
Series [10] can be described thus: Determination of water solubility, Method 1 (suspension in tap water, weighing). The series is classed as physicochemical. Conditions: thermodynamic from solid, room temperature, 18 h stirring, triplicates. How it is done:
(§7) Determination of Water Solubility
10 mg of compound was suspended in 1 L of tap water and the solution was stirred at room temperature for 18 h. Upon completion, solution was sonicated for another hour, centrifuged and the supernatant was separated from the precipitate. Both aliquots were lyophilized, and weighed. This procedure was performed in triplicates.

Series [11] is described as follows: Determination of water solubility, Method 2 (HPLC-MS standard curve, saturated solution in water). The series is classed as physicochemical. The conditions noted are these: thermodynamic from solid; saturated solution in water, HPLC-MS standard curve. How it is done:
as §7
A standard curve with 10 calibration points of the compound of interest is plotted using HPLC-MS and serial dilution. The dilutions and stock solutions were prepared in THF as a solvent. Following the measurements, a saturated solution in water of the compound in study was also measured. Upon plotting the standard curve using the peak areas of the MS peaks, the water samples were plotted along the curve and the solubility was then calculated.

Series [12] relates to L-929 (murine fibroblasts). The series can be described thus: Cytotoxicity assay (MTT, 5 d). Conditions: Mus musculus, L929, 120 h. The series is classed as cell-based. The procedure:
Cytotoxicity Assay The murine fibroblast cell line L-929 was obtained from the German Collection of Microorganisms and Cell Cultures (DSMZ) and maintained under conditions recommended by the depositor. Cells were seeded at 6×10^3 cells per well of sterile 96-well plates in 180 μL complete medium and treated with the compounds in serial dilution after 2 h of equilibration. After 5 d, viability was assessed by the MTT method. After 1.5 h incubation with 0.5 mg/mL MTT reagent, cells were washed with PBS and 100 μL of 2-propanol/10 N HCl (250:1) was added. The absorbance at 570 nm was determined on a microplate reader and cell viability was expressed as percentage relative to the respective solvent control. Half-inhibitory concentrations (IC50) were determined by sigmoidal curve fitting.

Series [13] deals with Plasmodium falciparum. Conditions: starting parasitemia levels of 0.01, 0.05, 0.5 and […]; cited from earlier work.
Series [14] concerns chloroquine-resistant laboratory strains of Plasmodium falciparum. The conditions noted are these: read-out: mean IC50, chloroquine-resistant laboratory strains of Plasmodium falciparum; in vitro, first screening; cited from earlier work.
Series [15] has as its system mature stage (stage IV-V) gametocytes. Conditions: read-out: mean IC50, gametocytocidal activity, ATP bioluminescence; cited from earlier work.
The subject of series [16] is Plasmodium falciparum. The conditions noted are these: cited from earlier work.
Series [17] deals with clinical isolates from Gabon. The conditions noted are these: read-out: median IC50, clinical isolates from Gabon; in vitro; cited from earlier work.
The conditions of series [18]: mice; cited from earlier work.
Series [19] relates to chloroquine-sensitive laboratory strains of Plasmodium falciparum. Conditions: read-out: mean IC50, chloroquine-sensitive laboratory strains of Plasmodium falciparum; in vitro, first screening; cited from earlier work.
[20] abbreviates: 3D7, read-out: IC50 against P. falciparum 3D7.
The mark [21] stands for this setting: DD2, read-out: IC50 against P. falciparum Dd2.

With `C[C@@H]1C(=O)O[C@@H](C)/C=C/C=C\[C@@H](C)[C@@H]2C=C[C@@H]3C[C@@]4(C)O[C@H]4[C@@H](C)[C@H]3[C@@H]2C(=O)C(Cl)(Cl)C1=O` [ChA-Epo2], the MIC in series [1] (Enterococcus faecalis, E. faecalis 20478) amounted to 0.8 µg/mL (≈ 1.61 µM); in [1] (Enterococcus faecalis, E. faecalis 29212), 1.6 µg/mL (≈ 3.23 µM); in series [1] (Enterococcus faecium, E. faecium 20477), 3.2 µg/mL (≈ 6.46 µM); in series [1] (Enterococcus faecium, VRE, E. faecium 17050 (VRE)), 0.4 µg/mL (≈ 0.807 µM); in series [1] (Micrococcus luteus, M. luteus) it was 0.025 µg/mL (≈ 0.0505 µM); in [1] (Mycolicibacterium smegmatis, M. smegmatis), 0.003 µg/mL (≈ 0.00606 µM). Further, the MIC worked out at 0.00125 µg/mL (≈ 0.00252 µM) in [1] (Priestia megaterium, B. megaterium); 0.2 µg/mL (≈ 0.404 µM) in series [1] (Staphylococcus epidermidis, S. epidermidis 28765); 8 µg/mL (≈ 16.1 µM) in series [1] (Streptococcus pneumoniae, PRSP, S. pneumoniae 11865 (PRSP)); 0.2 µg/mL (≈ 0.404 µM) in series [1] (Streptococcus pneumoniae, S. pneumoniae 20566); 0.025 µg/mL (≈ 0.0505 µM) in [7]; 0.05 µg/mL (≈ 0.101 µM) in series [8]. Inhibition of growth in [9] (MIC) required 0.025 µg/mL (≈ 0.0505 µM). In addition, the “Observations noted on fish larvae” value in series [2] (10 μM) is 4 delayed in development; in [2] (25 μM) it was 1 died, 4 delayed in; in [5] (10 μM) it was “died”; in series [5] (25 μM) it was “died”; in [5] (50 μM), “died”; in series [5] (100 μM), “died”. For the same compound, the “MTC (maximum tolerated concentration)” value in series [2] and in [5] was 1 µM in each case. Moreover, the IC50 in series [3] (P. falciparum 3D7 (sensitive strain), read-out: IC50 against P. falciparum 3D7) came to 51.3 nM; in series [4] (P. falciparum Dd2 (resistant strain), read-out: IC50 against P. falciparum Dd2), 87.1 nM; in series [12] it was 2100 nM. In series [6], the “MIC E. coli TolC (+PMBN)” value came out at 0.1 µg/mL. Moreover, the solubility at 18 h in [10] stood at 14 µg/mL (≈ 28.3 µM). In series [11], the solubility stood at 10.3 µg/mL (≈ 20.8 µM).

With `CCN(CC)CCCC(C)Nc1ccnc2cc(Cl)ccc12` (stereo not shown) [Chloroquine, reference compound], the IC50 came out at 7.4 nM in [3] (setting [20]) and 292 nM in series [4] (setting [21]). Also, the “Inoculum effect: difference in IC50 between lowest and highest parasitemia” value in series [13] is 5.6 fold.

Regarding `CC1=C[C@@H](C)C2C3C(=O)C(Cl)(Cl)C(=O)[C@H](C)C(=O)O[C@@H](C)/C=C/C=C\[C@@H](C)[C@@H]3C=C[C@@H]2C1` (stereo partly shown) [Chlorotonil A (ChA), Chlorotonil A], the IC50 is 18 nM in [14]; 29.6 nM in series [15]; 18.7 nM in series [3] (setting [20]); 20.7 nM in [4] (setting [21]); 15.2 nM in [17]; 9 nM in [19]. Besides, in series [12], the IC50 stood at 1100 nM. Also, the “Development of resistant parasites in vitro by drug pressure” value in series [16] was “not possible to develop resistant parasites in vitro by drug pressure”. Besides, the “MIC E. coli TolC (+PMBN)” value in [6] came to 0.4 µg/mL. In addition, in [18], the oral availability entry is reported as “orally available”. Also, the concentration in solution in series [10] (solubility at 18 h) came to 3 µg/mL (≈ 6.26 µM). Besides, in series [11], the solubility came out at 1.8 µg/mL (≈ 3.75 µM).

On to `C[C@H]1[C@H](OC(=O)CCC(=O)O)O[C@@H]2O[C@@]3(C)CC[C@H]4[C@H](C)CC[C@@H]1[C@@]24OO3` [artesunate], for which the “Inoculum effect: difference in IC50 between lowest and highest parasitemia” value in series [13] is 8.8 fold.
